The results in this text go back to ChEMBL document CHEMBL1142323, “Inhibition of carbonic anhydrases with glycosyltriazole benzene sulfonamides” (J Med Chem, 2008).

Among the targets are Carbonic anhydrase 9 (Homo sapiens, UniProt Q16790); Carbonic anhydrase 2 (Homo sapiens, UniProt P00918); Carbonic anhydrase 1 (Homo sapiens, UniProt P00915).

Chain of Carbonic anhydrase 1 (P00915 whole entry): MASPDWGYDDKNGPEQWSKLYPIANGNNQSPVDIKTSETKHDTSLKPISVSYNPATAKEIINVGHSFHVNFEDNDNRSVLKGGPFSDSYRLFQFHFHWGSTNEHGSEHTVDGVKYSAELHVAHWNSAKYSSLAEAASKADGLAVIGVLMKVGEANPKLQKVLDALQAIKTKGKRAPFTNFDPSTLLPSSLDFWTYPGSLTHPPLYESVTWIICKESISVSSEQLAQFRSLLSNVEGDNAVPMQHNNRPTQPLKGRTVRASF

Broadly, the Ki is the dissociation constant of the complex between target and ligand, obtained from inhibition or displacement. A high value points to a looser hold on the target. As to `CC(=O)N[C@@H]1[C@@H](OC(C)=O)[C@H](OC(C)=O)[C@@H](COC(C)=O)O[C@H]1n1cc(-c2ccc(S(N)(=O)=O)cc2)nn1`, the Ki on Carbonic anhydrase 9 is 101 nM.

With `NS(=O)(=O)c1ccc(-c2cn([C@@H]3O[C@H](CO)[C@H](O)[C@H](O)[C@H]3O)nn2)cc1`, the figures for the inhibition constant (Ki) at Carbonic anhydrase 2, on Carbonic anhydrase 9 and at Carbonic anhydrase 1 were 8.8 nM, 120 nM and 9.3 nM, respectively.

Turning to `CC(=O)OC[C@H]1O[C@@H](n2cc(-c3ccc(S(N)(=O)=O)cc3)nn2)[C@H](OC(C)=O)[C@@H](OC(C)=O)[C@H]1OC(C)=O`, the inhibition constant Ki is 8.7 nM on Carbonic anhydrase 2, 110 nM on Carbonic anhydrase 9 and 4300 nM on Carbonic anhydrase 1.

`NS(=O)(=O)c1ccc(-c2cn([C@@H]3O[C@H](CO)[C@@H](O)[C@H]3O)nn2)cc1` showed a Ki at Carbonic anhydrase 9 of 121 nM.

Take `NS(=O)(=O)c1ccc(-c2cn(C3O[C@H](CO)[C@@H](O)[C@H](O)[C@@H]3O)nn2)cc1` (single isomer, unassigned): the Ki amounted to 7.6 nM at Carbonic anhydrase 2, 5.4 nM at Carbonic anhydrase 9 and 2.8 nM on Carbonic anhydrase 1.

Consider `NS(=O)(=O)c1ccc(-c2cn([C@@H]3O[C@H](CO)[C@@H](O)[C@H](O)[C@H]3O)nn2)cc1`, for which the results for the Ki at Carbonic anhydrase 2, on Carbonic anhydrase 9 and at Carbonic anhydrase 1 were 380 nM, 89 nM and 9.4 nM, respectively.

The molecule `COC(=O)[C@H]1O[C@@H](n2cc(-c3ccc(S(N)(=O)=O)cc3)nn2)[C@H](O)[C@@H](O)[C@@H]1O` came in with a Ki on Carbonic anhydrase 9 of 8.4 nM.

`CC(=O)OC[C@H]1OC(n2cc(-c3ccc(S(N)(=O)=O)cc3)nn2)[C@@H](OC(C)=O)[C@@H](OC(C)=O)[C@@H]1OC(C)=O` (single isomer, unassigned): the inhibition constant Ki amounted to 2.1 nM at Carbonic anhydrase 2, 5 nM on Carbonic anhydrase 9 and 1.6 nM at Carbonic anhydrase 1.

`COC(=O)[C@H]1O[C@@H](n2cc(-c3ccc(S(N)(=O)=O)cc3)nn2)[C@H](OC(C)=O)[C@@H](OC(C)=O)[C@@H]1OC(C)=O` displayed an inhibition constant (Ki) at Carbonic anhydrase 9 of 9.9 nM.

Take `CC(=O)O[C@H]1[C@H](OC(C)=O)C(n2cc(-c3ccc(S(N)(=O)=O)cc3)nn2)OC[C@H]1OC(C)=O` (single isomer, unassigned): on Carbonic anhydrase 9, the Ki worked out at 134 nM.

In the case of `CC(=O)OC[C@H]1O[C@@H](n2cc(-c3ccc(S(N)(=O)=O)cc3)nn2)[C@H](OC(C)=O)[C@@H](OC(C)=O)[C@@H]1OC(C)=O`, the results for the Ki on Carbonic anhydrase 2 and on Carbonic anhydrase 1 were 9.1 nM and 4400 nM, respectively.

For the molecule `CC(=O)OC[C@H]1O[C@@H](n2cc(-c3ccc(S(N)(=O)=O)cc3)nn2)[C@H](OC(C)=O)[C@@H](OC(C)=O)[C@@H]1O[C@H]1O[C@H](COC(C)=O)[C@@H](OC(C)=O)[C@H](OC(C)=O)[C@H]1OC(C)=O`, the inhibition constant (Ki) at Carbonic anhydrase 9 was 120 nM.

For the molecule `NS(=O)(=O)c1ccc(-c2cn([C@@H]3O[C@H](CO)[C@@H](O[C@H]4O[C@H](CO)[C@@H](O)[C@H](O)[C@H]4O)[C@H](O)[C@H]3O)nn2)cc1`, the inhibitory constant (Ki) on Carbonic anhydrase 9 stood at 130 nM.
